Experimental data published in ChEMBL document CHEMBL1201862, “PubChem BioAssay data set” (2004).
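How tested: cells in 96-well plates exposed to compound for 48 hours at five concentrations. GI50 marks 50% less growth.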 The source made the active and inactive calls. Rule as the data show it: active = GI50 up to about 1.1 µM and inactive = higher.

Experiments:
Test in all cases: DTP human tumour cell line panel, 48 h
[1] = system: A498
[2] = system: DU-145
[3] = system: HCT-116
[4] = system: HOP-62
[5] = system: HOP-92
[6] = system: OVCAR-4
[7] = system: SF-539
[8] = system: SK-MEL-28
[9] = system: SK-MEL-2
[10] = system: SNB-19
[11] = system: SR
[12] = system: SW-620
[13] = system: T47D
[14] = system: U-251
[15] = system: UACC-257
[16] = system: UO-31
[17] = system: IGROV-1
[18] = system: OVCAR-8
[19] = system: RXF 393
[20] = system: SNB-75

SMILES | GI50 [1] | GI50 [2] | GI50 [3] | GI50 [4] | GI50 [5] | GI50 [6] | GI50 [7] | GI50 [8] | GI50 [9] | GI50 [10] | GI50 [11] | GI50 [12] | GI50 [13] | GI50 [14] | GI50 [15] | GI50 [16] | GI50 [17] | GI50 [18] | GI50 [19] | GI50 [20]
CC1=CC[C@@H]2[C@@H](CC[C@@]2(C)O)C(C)(C)[C@H]1CC[C@@H]1[C@@]2(C)CC[C@@H](O)C(C)(C)O[C@@H]2CC[C@]1(C)O | 15 µM (inactive) | 36.3 µM (inactive) | 14 µM (inactive) | 23.2 µM (inactive) | 12.5 µM (inactive) | 37.2 µM (inactive) | 19.6 µM (inactive) | 16.8 µM (inactive) | 34 µM (inactive) | 14.2 µM (inactive) | 14.9 µM (inactive) | 31.8 µM (inactive) | 39.2 µM (inactive) | 17.1 µM (inactive) | 25.6 µM (inactive) | 17 µM (inactive) | – | – | – | –
CN(C)/C=C/c1ccncc1 | > 100 µM (inactive) | > 100 µM (inactive) | > 100 µM (inactive) | > 100 µM (inactive) | > 100 µM (inactive) | > 100 µM (inactive) | > 100 µM (inactive) | > 100 µM (inactive) | > 100 µM (inactive) | > 100 µM (inactive) | > 100 µM (inactive) | > 100 µM (inactive) | > 100 µM (inactive) | > 100 µM (inactive) | > 100 µM (inactive) | > 100 µM (inactive) | > 100 µM (inactive) | > 100 µM (inactive) | > 100 µM (inactive) | –
CC1CC(NN(C)C)C2(C(N)=O)C(N)=NC(=O)C12C#N (configuration not stated) | > 100 µM (inactive) | > 100 µM (inactive) | > 100 µM (inactive) | > 100 µM (inactive) | > 100 µM (inactive) | – | > 100 µM (inactive) | > 100 µM (inactive) | > 100 µM (inactive) | > 100 µM (inactive) | > 100 µM (inactive) | > 100 µM (inactive) | > 100 µM (inactive) | > 100 µM (inactive) | > 100 µM (inactive) | > 100 µM (inactive) | > 100 µM (inactive) | > 100 µM (inactive) | > 100 µM (inactive) | 10 µM (inactive)
NS(=O)(=O)c1ccc(N=C2C(=O)Nc3ccccc32)cc1 | > 100 µM (inactive) | > 100 µM (inactive) | > 100 µM (inactive) | > 100 µM (inactive) | > 100 µM (inactive) | > 100 µM (inactive) | – | > 100 µM (inactive) | > 100 µM (inactive) | > 100 µM (inactive) | 67.8 µM (inactive) | > 100 µM (inactive) | > 100 µM (inactive) | > 100 µM (inactive) | > 100 µM (inactive) | > 100 µM (inactive) | > 100 µM (inactive) | > 100 µM (inactive) | > 100 µM (inactive) | > 100 µM (inactive)
CNC(=S)NNc1ncnc2c1c(-c1ccc(Cl)cc1)cn2-c1ccc(C)cc1 | 20.8 µM (inactive) | 14.8 µM (inactive) | 4.57 µM (inactive) | 17.6 µM (inactive) | 15.5 µM (inactive) | 15.6 µM (inactive) | 16 µM (inactive) | 11.4 µM (inactive) | 13.6 µM (inactive) | 17.6 µM (inactive) | 2.21 µM (inactive) | 6.67 µM (inactive) | 8.49 µM (inactive) | 11.1 µM (inactive) | 12.9 µM (inactive) | 10.9 µM (inactive) | 10.4 µM (inactive) | 9.48 µM (inactive) | 16.4 µM (inactive) | –
CN(C)Cc1cc(/N=N/c2ccc(Cl)c(Cl)c2)ccc1O | 11.1 µM (inactive) | 4 µM (inactive) | 14.4 µM (inactive) | 2.72 µM (inactive) | 3.3 µM (inactive) | 7.28 µM (inactive) | 18.5 µM (inactive) | 13.7 µM (inactive) | – | 13.6 µM (inactive) | 7.45 µM (inactive) | 11.1 µM (inactive) | 7 µM (inactive) | 11.5 µM (inactive) | 16.8 µM (inactive) | 2.49 µM (inactive) | 3.4 µM (inactive) | 12.9 µM (inactive) | 1.48 µM (inactive) | 7.13 µM (inactive)
CC(=O)c1sc(Nc2ccc(Cl)c(Cl)c2)nc1C | 32.4 µM (inactive) | > 100 µM (inactive) | > 100 µM (inactive) | 69.2 µM (inactive) | – | > 100 µM (inactive) | > 100 µM (inactive) | > 100 µM (inactive) | – | > 100 µM (inactive) | 60.3 µM (inactive) | > 100 µM (inactive) | 40 µM (inactive) | > 100 µM (inactive) | 68.5 µM (inactive) | > 100 µM (inactive) | > 100 µM (inactive) | > 100 µM (inactive) | 55.3 µM (inactive) | 54.1 µM (inactive)
O=C1OCCC[C@H]2O[C@@H](COCc3ccccc3)C[C@@H]12 | > 100 µM (inactive) | > 100 µM (inactive) | > 100 µM (inactive) | > 100 µM (inactive) | > 100 µM (inactive) | > 100 µM (inactive) | > 100 µM (inactive) | > 100 µM (inactive) | > 100 µM (inactive) | > 100 µM (inactive) | > 100 µM (inactive) | > 100 µM (inactive) | > 100 µM (inactive) | > 100 µM (inactive) | > 100 µM (inactive) | > 100 µM (inactive) | – | > 100 µM (inactive) | – | > 100 µM (inactive)
CC(C)(C)OC(=O)n1c(-c2ccccc2F)cc(=O)c2cc3c(cc21)OCO3 | 0.141 µM (active) | 0.0451 µM (active) | 0.0426 µM (active) | 0.0863 µM (active) | 7.24 µM (inactive) | – | 0.0736 µM (active) | > 100 µM (inactive) | 0.0531 µM (active) | 0.145 µM (active) | 0.0327 µM (active) | 0.0596 µM (active) | 16.8 µM (inactive) | 0.0476 µM (active) | – | 0.188 µM (active) | – | 0.0906 µM (active) | – | 0.0318 µM (active)
COc1ccccc1C(O)[C@@H]1C[C@@H]2[C@H]3CC[C@@](C)([C@@H]2O1)C3(C)C (some centres not stated) | 15.4 µM (inactive) | 22.1 µM (inactive) | 20.5 µM (inactive) | 18.7 µM (inactive) | 15.8 µM (inactive) | – | 6.53 µM (inactive) | 17.1 µM (inactive) | 18.1 µM (inactive) | 22.8 µM (inactive) | 20.6 µM (inactive) | 16.1 µM (inactive) | 16.4 µM (inactive) | 16.5 µM (inactive) | 20.3 µM (inactive) | 17.9 µM (inactive) | 15.9 µM (inactive) | 18.2 µM (inactive) | 17.4 µM (inactive) | 16.9 µM (inactive)
CC1CC[C@@]2(OC1)OC1C[C@H]3[C@@H]4CCC5CC(O)CC[C@]5(C)[C@H]4C/C(=N\N(C)C)[C@]3(C)C1[C@@H]2C (some centres not stated) | 23 µM (inactive) | 21.8 µM (inactive) | 23.3 µM (inactive) | 16.7 µM (inactive) | 52.8 µM (inactive) | 38.3 µM (inactive) | 23.8 µM (inactive) | 43.7 µM (inactive) | 20.5 µM (inactive) | 30.1 µM (inactive) | 13.8 µM (inactive) | 40.3 µM (inactive) | 31.8 µM (inactive) | 31 µM (inactive) | 38.8 µM (inactive) | 33.5 µM (inactive) | 28.7 µM (inactive) | – | 16.3 µM (inactive) | –
CO[C@]12CC(=O)C3(C(C[C@H]4CC5CC[C@H]6C[C@@H](OC(C)=O)CC[C@]6(OC(C)=O)C5C[C@@]43C)C1)C1C[C@H]3[C@@H]4CC[C@H]5C[C@@H](OC(C)=O)CC[C@]5(OC(C)=O)[C@H]4CC[C@]3(C)C12 (some centres not stated) | > 100 µM (inactive) | 70.3 µM (inactive) | 42.5 µM (inactive) | > 100 µM (inactive) | > 100 µM (inactive) | 17.1 µM (inactive) | > 100 µM (inactive) | > 100 µM (inactive) | > 100 µM (inactive) | 82.8 µM (inactive) | > 100 µM (inactive) | > 100 µM (inactive) | 37 µM (inactive) | 75.5 µM (inactive) | > 100 µM (inactive) | > 100 µM (inactive) | > 100 µM (inactive) | 46 µM (inactive) | – | > 100 µM (inactive)
NCCC(N)C(=O)O (configuration not stated) | > 100 µM (inactive) | > 100 µM (inactive) | > 100 µM (inactive) | > 100 µM (inactive) | > 100 µM (inactive) | > 100 µM (inactive) | > 100 µM (inactive) | > 100 µM (inactive) | > 100 µM (inactive) | > 100 µM (inactive) | > 100 µM (inactive) | > 100 µM (inactive) | > 100 µM (inactive) | > 100 µM (inactive) | > 100 µM (inactive) | > 100 µM (inactive) | > 100 µM (inactive) | > 100 µM (inactive) | > 100 µM (inactive) | –
CCCCCCCC(CC(=O)NC(CO)C(=O)NC(CO)CC(C)C)OC(=O)CC(CCCCCCC)OC(=O)CC(CCCCCCC)OC1OC(C)C(O)C(OC2OC(C)C(O)C(O)C2OC(C)=O)C1O (configuration not stated) | 15.8 µM (inactive) | 10.6 µM (inactive) | 3.94 µM (inactive) | 12.9 µM (inactive) | 10.2 µM (inactive) | 5.64 µM (inactive) | 11.1 µM (inactive) | 9.64 µM (inactive) | – | 8.26 µM (inactive) | 2.14 µM (inactive) | 8.75 µM (inactive) | 6.52 µM (inactive) | 7.03 µM (inactive) | 2.99 µM (inactive) | 16.9 µM (inactive) | 10.9 µM (inactive) | 7.35 µM (inactive) | 2.14 µM (inactive) | 4.29 µM (inactive)
